PubChem BioAssay (NCI)
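Cells were grown in 96-well plates and exposed to each compound for 48 hours at five concentrations; endpoints were interpolated linearly between bracketing concentrations, or set to the highest concentration if not reached. GI50 is the concentration that inhibits growth by half. TGI: concentration producing complete growth inhibition.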

Assays:
Experiment in all cases: growth of human tumour cells (NCI), 48 h
TK-10 renal = tested on: TK-10 renal
NCI-H522 lung = tested on: NCI-H522 lung
NCI-H460 lung = tested on: NCI-H460 lung
SK-MEL-5 melanoma = tested on: SK-MEL-5 melanoma
MDA-MB-435 = tested on: MDA-MB-435
UO-31 renal = tested on: UO-31 renal
NCI-H226 lung = tested on: NCI-H226 lung
RXF 393 renal = tested on: RXF 393 renal

Compound | GI50 (TK-10 renal) | TGI (TK-10 renal) | GI50 (NCI-H522 lung) | TGI (NCI-H522 lung) | GI50 (NCI-H460 lung) | TGI (NCI-H460 lung) | GI50 (SK-MEL-5 melanoma) | TGI (SK-MEL-5 melanoma) | GI50 (MDA-MB-435) | TGI (MDA-MB-435) | GI50 (UO-31 renal) | TGI (UO-31 renal) | GI50 (NCI-H226 lung) | TGI (NCI-H226 lung) | GI50 (RXF 393 renal) | TGI (RXF 393 renal)
COc1cccc2c1C(=O)c1c(O)c3c(c(O)c1C2=O)C[C@](O)(C(=O)CO)C[C@H]3O[C@@H]1C[C@@H](NC(=O)CCCN(C)C2(c3ccc(F)cc3)CC3CCC2C3)[C@H](O)[C@@H](C)O1 (stereo partly drawn) | 0.78 µM | 1.64 µM | 0.827 µM | 1.61 µM | 0.545 µM | 1.22 µM | 0.859 µM | 1.57 µM | 0.836 µM | 1.61 µM | 6.23 µM | 14.5 µM | 3.53 µM | 15.7 µM | 0.696 µM | 1.41 µM
CCc1cc2c(c(OCC(F)(F)F)c(C(=O)NC3CCN(C(=O)CO)CC3)n2C)c(=O)n1CC(=O)c1ccccc1 | > 100 µM | > 100 µM | > 95.9 µM | > 100 µM | > 57.8 µM | > 100 µM | 80.2 µM | > 100 µM | > 100 µM | > 100 µM | 45.3 µM | > 100 µM | 97 µM | > 100 µM | 11.2 µM | 42.7 µM
CCCCCCOC(=O)CC1=C(C)/C(=C/c2[nH]c(-c3ccc[nH]3)cc2OC)N=C1C | 0.108 µM | 1.38 µM | 0.0506 µM | 1.12 µM | 0.355 µM | 1.39 µM | – | – | 0.0463 µM | 1.12 µM | 0.163 µM | 0.329 µM | 0.137 µM | 1.06 µM | 0.163 µM | 1.07 µM
COc1ccc(C2c3ccc4ccccc4c3Oc3ncn(CCCn4ccnc4)c(=N)c32)cc1OC (stereo not drawn) | 4 µM | 14.4 µM | 1.87 µM | 4.36 µM | 3.65 µM | 13.2 µM | 1.66 µM | 3.11 µM | 1.99 µM | 4.06 µM | 3.75 µM | 16.1 µM | 9.16 µM | 27.1 µM | 1.78 µM | 4.64 µM
CCn1nc(C2CCN(C(=O)CCO)CC2)nc1-c1cnc(N)c(-c2nnc(C(C)(C)C)o2)n1 | 1.95 µM | > 100 µM | 15.3 µM | 63.5 µM | 3.9 µM | > 100 µM | 11.5 µM | 31.3 µM | 13 µM | > 100 µM | 0.966 µM | 51.7 µM | 25.8 µM | > 100 µM | 2.45 µM | 20.9 µM
Cc1cccc2c(=O)c3c(sc12)c(NCCCNCCO)nc1ccccc13 | – | – | 1.65 µM | 3.54 µM | 1.15 µM | 2.55 µM | 1.78 µM | 3.29 µM | 1.74 µM | 3.18 µM | 1.19 µM | 2.55 µM | 1.6 µM | 3.33 µM | 1.51 µM | 2.89 µM
Cc1ccc(/C(=N/NS(=O)(=O)c2cc(C)c(Cl)cc2Cl)Sc2cc(Cl)c(C)cc2S(N)(=O)=O)cc1 | > 100 µM | > 100 µM | > 100 µM | > 100 µM | > 100 µM | > 100 µM | > 100 µM | > 100 µM | > 100 µM | > 100 µM | > 100 µM | > 100 µM | > 100 µM | > 100 µM | 90.9 µM | > 100 µM
O=c1[nH]c(-c2ccc(Cl)c(Cl)c2)cn1-c1ccc(Cl)cc1 | 16.5 µM | 32.4 µM | 44.3 µM | > 100 µM | 22.3 µM | 52.2 µM | 42.2 µM | > 100 µM | 60 µM | > 100 µM | 25.4 µM | 60.5 µM | 22.9 µM | 54.1 µM | 32.7 µM | 56.4 µM
CCCCCCCCCCCCCCCCn1cc[n+](C)c1 | 0.254 µM | 0.929 µM | – | – | 0.486 µM | 1.83 µM | – | – | 0.358 µM | 1.49 µM | 1.04 µM | 2.24 µM | – | – | 0.252 µM | 0.907 µM
COc1ccc(O)c(/C=N\Nc2ccccc2)c1 | – | – | – | 49.2 µM | – | > 100 µM | – | > 100 µM | – | 43.8 µM | – | > 100 µM | – | > 100 µM | – | > 100 µM
COc1ccc(C(=O)/C=C/c2cc(-c3ccc(OC)c(OC)c3)n[nH]2)cc1OC | 4.96 µM | 47.7 µM | 1.69 µM | 3.9 µM | 0.606 µM | 4.36 µM | 1.58 µM | 2.96 µM | – | – | 1.5 µM | 3.8 µM | 1.66 µM | 4.23 µM | 1.45 µM | 2.98 µM
CCN1/C(=C/C(C)=C/c2sc3ccc4ccccc4c3[n+]2CC)Sc2ccc3ccccc3c21 | 0.217 µM | 0.997 µM | 0.121 µM | 0.528 µM | 0.121 µM | 0.329 µM | 0.123 µM | 0.352 µM | – | – | 0.181 µM | 0.571 µM | 0.225 µM | 1.27 µM | – | –
CCNCC(=O)Nc1ccc2c(c1)C(=O)c1ccc(NC(=O)CNCC)cc1C2=O | – | 18.7 µM | – | 4.61 µM | – | – | – | 59.3 µM | – | 6.18 µM | – | 8.9 µM | – | 20 µM | – | 13.3 µM
COc1cc2c3c(n(CCCN=[N+]=[N-])c(=O)c2cc1OC)-c1ccccc1C3=O | 13.8 µM | 75.5 µM | 44.8 µM | > 100 µM | 5.2 µM | > 100 µM | 3.17 µM | 9.25 µM | 9.81 µM | 83.9 µM | > 100 µM | > 100 µM | – | – | – | –
CCOc1ccccc1/C=N\N=C(N/N=C/c1ccccc1OCC)N/N=C/c1ccccc1OCC | 2.81 µM | > 100 µM | – | – | 1.35 µM | > 100 µM | 1.69 µM | 3.71 µM | 3.44 µM | > 100 µM | 1.73 µM | > 100 µM | 2.74 µM | > 100 µM | 2.67 µM | > 100 µM
COC(=O)[C@H](Cc1cn(C)cn1)NC(=O)[C@H](CC(C)C)NC(=O)Nc1cc(C(F)(F)F)cc(C(F)(F)F)c1 | > 10 µM | > 10 µM | – | – | > 10 µM | > 10 µM | > 10 µM | > 10 µM | > 10 µM | > 10 µM | > 10 µM | > 10 µM | > 10 µM | > 10 µM | 3.46 µM | > 10 µM
CCCCN(CCCC)P(=O)(Oc1ccccc1)Oc1ccccc1 | 15.8 µM | 33.1 µM | 3.96 µM | 18.2 µM | 5.24 µM | 18.9 µM | 11.5 µM | 23.7 µM | 6.2 µM | 19.9 µM | – | – | 10.4 µM | 25.4 µM | 1.85 µM | 5.97 µM
